The target of one test is AChE (Electrophorus electricus, UniProt O42275). Nature of the test: Ellman's assay, AChE (type VI-S) inhibition. Type of test: biochemical.
A further test has as its target BChE (Equus caballus, UniProt P81908). Nature of the test: Ellman's assay, BChE inhibition. Type of test: biochemical. On the technique in general: In Ellman's method for cholinesterases, released thiocholine reacts with DTNB.

The source of these data is PMC11808583 (Current Neuropharmacology, 2024).

Chain of BChE (P81908 whole entry): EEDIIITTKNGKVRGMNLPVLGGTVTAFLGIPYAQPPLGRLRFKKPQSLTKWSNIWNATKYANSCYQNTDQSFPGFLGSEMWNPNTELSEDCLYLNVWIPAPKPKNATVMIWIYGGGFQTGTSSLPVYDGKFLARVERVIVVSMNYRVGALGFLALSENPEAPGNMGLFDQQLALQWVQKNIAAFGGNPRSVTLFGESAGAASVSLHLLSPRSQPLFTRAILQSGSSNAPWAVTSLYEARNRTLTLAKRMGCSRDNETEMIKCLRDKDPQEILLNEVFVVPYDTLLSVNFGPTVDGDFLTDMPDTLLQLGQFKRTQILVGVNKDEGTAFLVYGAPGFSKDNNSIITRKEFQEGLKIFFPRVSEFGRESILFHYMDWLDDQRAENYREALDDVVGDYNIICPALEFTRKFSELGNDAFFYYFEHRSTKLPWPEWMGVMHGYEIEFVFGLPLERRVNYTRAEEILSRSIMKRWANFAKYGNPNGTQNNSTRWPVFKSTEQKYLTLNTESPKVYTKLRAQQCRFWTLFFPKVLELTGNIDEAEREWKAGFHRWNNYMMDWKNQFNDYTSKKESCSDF
Chain of AChE (O42275 24-633): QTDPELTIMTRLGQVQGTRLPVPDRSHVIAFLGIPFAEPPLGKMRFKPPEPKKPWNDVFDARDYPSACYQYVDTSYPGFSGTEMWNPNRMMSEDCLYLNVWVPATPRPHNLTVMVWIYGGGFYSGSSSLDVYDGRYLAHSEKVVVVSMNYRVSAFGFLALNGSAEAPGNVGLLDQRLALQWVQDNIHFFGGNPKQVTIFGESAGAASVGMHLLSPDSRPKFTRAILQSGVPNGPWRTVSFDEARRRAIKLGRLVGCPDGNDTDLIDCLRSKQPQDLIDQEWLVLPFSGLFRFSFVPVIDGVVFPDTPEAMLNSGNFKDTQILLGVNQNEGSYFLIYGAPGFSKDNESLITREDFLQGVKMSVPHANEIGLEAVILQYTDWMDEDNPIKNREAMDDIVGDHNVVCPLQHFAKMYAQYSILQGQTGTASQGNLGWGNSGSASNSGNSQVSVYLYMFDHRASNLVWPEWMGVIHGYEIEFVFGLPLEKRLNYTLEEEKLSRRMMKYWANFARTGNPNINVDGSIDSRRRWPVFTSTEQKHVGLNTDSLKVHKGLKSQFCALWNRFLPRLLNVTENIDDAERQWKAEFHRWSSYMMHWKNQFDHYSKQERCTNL

For the molecule `C/C=C\c1ccc(O)c(OC)c1` [isoeugenol], the figures for the IC50 against AChE and against BChE were 2620 µM and 1690 µM, respectively.
